Experiment [1] in a line: Increase in contractions of electrically stimulated guinea pig longitudinal muscle/myenteric plexus at 2 mM. It is filed as functional, Cavia porcellus, Muscle tissue.
For another experiment, the species on record is Cavia porcellus. Nature of the experiment: Increase in contractions of electrically stimulated guinea pig longitudinal muscle/myenteric plexus. The class given is functional, tissue-based. Particulars: Muscle tissue.
The nature of experiment [2]: Increase in contractions of electrically stimulated guinea pig longitudinal muscle/myenteric plexus at 0.1 mM. The class given is functional, Cavia porcellus, Muscle tissue.

In experiment [1], `Cn1c(=N)c2nc[nH]c2n(C)c1=O` returned an Activity of 34%.
Consider `C/N=c1\ncn(C)c2c1[nH]c(=O)n2C` [CAISSARONE], for which the Activity entry was “Dose-dependent effect” in the experiment listed under Cavia porcellus and 80% in experiment [2].

The record behind these values is ChEMBL document CHEMBL1146421, “1,3-Dimethylisoguanine, a new purine from the marine sponge Amphimedon viridis” (1997).
